Laboratory results taken from patent US20090304686A1, “INTERFERING IN ACTIVATION OF AN IMMUNE CELL BY INFLUENCING INTERACTION OF LAIR AND COLLAGEN” (UNIVERSOTAIR MEDISCH CENTRUM UTRECHT, priority 2006, published 2009).
Entries after “also recorded” stand apart in the source; their conditions may differ.

Key:
hLAIR-1-CD3ζ chimera = biological target: T1, hLAIR-1-CD3ζ chimera (Homo sapiens, UniProt Q6GTX8); assay: 2B4 NFAT-GFP reporter cell assay, hLAIR-1-CD3ζ chimera; format: cell-based; details: for most potent hLAIR-1 activators in order of strength: order: III-30, II-56, II-30, III-38, II-42, III-51; for functional triggering of hLAIR-1-CD3ζ (GFP expression, in words): plate-bound ligand
T1 construct: a chimeric protein consisting of the extracellular domain of hLAIR-1 fused to the transmembrane and intracellular domain of CD3ζ; expressed in transfected cells; host or cells: Mouse 2B4 NFAT-GFP reporter T cell hybridoma, pMX puro retroviral vector
T1 sequence (Q6GTX8 22-165 limits assumed): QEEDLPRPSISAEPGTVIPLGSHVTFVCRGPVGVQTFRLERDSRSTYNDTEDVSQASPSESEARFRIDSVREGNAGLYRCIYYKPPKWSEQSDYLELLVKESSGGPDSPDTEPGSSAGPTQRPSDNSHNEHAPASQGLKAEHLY
Experimental: For detection of LAIR-1 ligands: 2B4 T cell hybridoma cells stably transduced with an NFAT-GFP reporter and hLAIR-1-CD3ζ were analyzed as described (11).
2B4 T cell hybridoma cells were stably transduced with an NFAT-GFP reporter construct(40) and hLAIR-1-CD3ζ(15) and analyzed as described(15, 40).

hLAIR-1-IgG = biological target: T2, hLAIR-1-IgG (Homo sapiens, UniProt Q6GTX8); assay: BIAcore binding of hLAIR-1-IgG to immobilized triple-helical peptides; details: hLAIR-1-IgG 780 nM, 5 μl/min, ~250 RU peptide
T2 construct: chimeric proteins of the extracellular domain of hLAIR-1 or LAIR-2 fused to the Fc region of human IgG1 were prepared; made in house
T2 sequence (Q6GTX8 22-165 limits assumed): T1 sequence (Q6GTX8 22-165 limits assumed)
Experimental: (§1) Surface plasmon resonance (BIAcore) binding studies were performed using a BIAcore2000 system (BIAcore AB, Uppsala, Sweden). Approximately 2000-3000 response units (RU) of acid-soluble human collagen type I or III (Sigma) were immobilized on a CM5 biosensor chip using the amine coupling kit as instructed by the supplier. Immobilized triple-helical peptides composed of GCO(GPO)10GCOG-NH2 ((GPO)10, also known as collagen-related peptide, CRP^6) and GCP(GPP)10GCPG-NH2 ((GPP)10) were described previously^6. Approximately 250 RU (GPP)10 or (GPO)10 peptide trimers were immobilized using a cysteine coupling kit according manufacturers instructions. Analysis was performed in buffer (125 mM NaCl, 2.5 mM CaCl2, 0.005% (v/v) Tween 20, and 25 mM Hepes, (pH 7.4)) at 25° C. at a flow rate of 20 μl/min for collagen I and III interaction-studies and 5 μl/min for the immobilized peptides. […] Increasing concentrations of hLAIR-1-IgG were injected and allowed to reach an equilibrium plateau for 10 minutes. The delay between injections was 13 min, during which time the biosensor chip was flushed with buffer. In case of peptide-binding studies, biosensor chips were regenerated by injection of 0.1 M H3PO4 (2 min, 5 μl/min).

LAIR-2 fusion protein = biological target: T3, LAIR-2 fusion protein (Homo sapiens, UniProt Q6ISS4); assay: BIAcore binding of LAIR-2 fusion protein to immobilized trimeric peptides; details: 5 μl/min, ~250 RU peptide
T3 construct: chimeric proteins of the extracellular domain of hLAIR-1 or LAIR-2 fused to the Fc region of human IgG1 were prepared; made in house
T3 sequence (Q6ISS4 22-152): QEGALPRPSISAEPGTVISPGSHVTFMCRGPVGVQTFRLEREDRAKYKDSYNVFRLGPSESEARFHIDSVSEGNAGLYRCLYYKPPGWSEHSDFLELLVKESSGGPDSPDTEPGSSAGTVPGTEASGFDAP
Experimental: as §1
The surface plasmon resonance binding studies were performed as described before(15). LAIR-2-IgG dimer concentration was calculated based on a theoretical mass of 82.5 kDa.

[1] = system: parental 2B4 NFAT-GFP reporter T cell hybridoma cells; assay: Inhibition of CD3 signaling in parental (untransfected) 2B4 NFAT-GFP reporter cells; format: cell-based, Mouse; details: for inhibition of CD3-induced activation of parental reporter cells: high peptide concentrations
hLAIR-1 [2] = biological target: T4, hLAIR-1 (Homo sapiens, UniProt Q6GTX8); assay: FcεRI-induced degranulation assay, hLAIR-1 transfected RBL-2H3 cells; format: cell-based; set-up: expressed in transfected cells; details: plate-bound together with TNP-BSA 0.8 μg/ml
T4 sequence (Q6GTX8 22-287): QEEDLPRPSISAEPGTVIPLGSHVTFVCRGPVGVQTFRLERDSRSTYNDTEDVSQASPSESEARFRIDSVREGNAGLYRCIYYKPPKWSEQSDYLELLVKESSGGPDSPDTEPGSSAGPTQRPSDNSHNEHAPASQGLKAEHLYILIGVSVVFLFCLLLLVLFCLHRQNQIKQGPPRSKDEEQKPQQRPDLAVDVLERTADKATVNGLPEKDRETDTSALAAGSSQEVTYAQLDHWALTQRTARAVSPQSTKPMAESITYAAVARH
Experimental: 96-well MAXIsorp flat-bottom plates (Nunc) were coated overnight at 4° C. with BSA, or TNP conjugated to BSA (0.8 μg/ml) and indicated amounts of synthetic trimeric peptides (100 μl/well, 2 mM acetic acid in PBS). Meanwhile, untransfected or hLAIR-1a transfected RBL-2H3 (23) cells were sensitized with IgE anti-TNP mAbs at 4° C. for 30 minutes and subsequently washed for three times in medium (AIM-V; Gibco-BRL). After washings of the plates, 5.0×10^5 cells in 70 μl medium were added to each well, and plates were incubated at 37° C. for 1 hour. Subsequently, cultures were transferred to PCR tubes, centrifuged and the supernatants were assayed for β-glucuronidase activity as described (23).

hLAIR-1 [3] = biological target: T4, hLAIR-1; assay: Inhibition of CD3 signaling in hLAIR-1a transfected 2B4 NFAT-GFP reporter cells; format: cell-based; set-up: expressed in transfected cells; host or cells: Mouse 2B4 NFAT-GFP reporter T cell hybridoma; details: for inhibition of CD3-induced activation of hLAIR-1 transfected reporter cells (in words): plate-bound peptide 10, 3.3, 1.1, 0.37 μg/ml; for inhibitory capacity at low peptide concentration (in words): 1.1 μg/ml; for inhibition of CD3-induced activation of hLAIR-1 transfected reporter cells: low peptide concentration 1.1 μg/ml
Experimental: For detection of inhibition of mouse CD3 signaling: 2B4 T cell hybridoma cells stably transduced with an NFAT-GFP reporter and hLAIR-1a were generated. 1.25 μg/ml anti-mouse CD3 (PharMingen, San Diego, Calif.) was coated overnight at 4° C. in 96-well MAXIsorp flat-bottom plates (Nunc) together with an indicated amount of synthetic trimeric peptides in a total volume of 100 μl/well. The next day, plates were washed and 200 μl of 2.5×10^5 reporter cells/ml in medium were added to each well, and plates were incubated at 37° C. for 22 hrs and then analyzed for GFP expression by flow cytometry on a FACSCalibur (BD Biosciences). Typically, ˜90 percent of the reporters expressed GFP upon CD3 stimulation.

Row | Substance | most potent hLAIR-1 activators in order of strength (hLAIR-1-CD3ζ chimera) | inhibition of FcεRI-induced degranulation (β-glucuronidase release) (hLAIR-1 [2]) | inhibition of CD3-induced activation of hLAIR-1 transfected reporter cells (in words) (hLAIR-1 [3]) | other results
1 | GPC(GPP)5-GRAGEOGLQGPAGPOGEKGEOGDDGPS-(GPP)5GPC-NH2 [II-42] | most potent hLAIR-1 activators | – | – | –
2 | GCP(GPP)10GCPG-NH2 [reference compound] | – | not | did not inhibit | binding of hLAIR-1-IgG to immobilized peptide (hLAIR-1-IgG): did not; interaction of LAIR-2 with immobilized trimeric peptide (LAIR-2 fusion protein): not; inhibition of CD3-induced activation of parental reporter cells (in words) [1]: did not inhibit
3 | GPC(GPP)5-GPRGRSGETGPAGPOGNOGPOGPOGPO-(GPP)5GPC-NH2 [II-56] | most potent hLAIR-1 activators | potent inhibitors | efficiently inhibiting | inhibition of CD3-induced activation of parental reporter cells [1]: ~30%; inhibitory capacity at low peptide concentration (in words) (hLAIR-1 [3]): full inhibitory capacity; also recorded: full inhibitory potential
4 | GPC(GPP)5-GPAGEOGREGSOGADGPOGRDGAAGVK-(GPP)5GPC-NH2 [II-47] | – | – | did not induce inhibition | –
5 | GPC(GPP)5-GEGGPOGVAGPOGGSGPAGPOGPQGVK-(GPP)5GPC-NH2 [III-38] | most potent hLAIR-1 activators | – | efficiently inhibiting | inhibition of CD3-induced activation of hLAIR-1 transfected reporter cells (hLAIR-1 [3]): ~60%
6 | GPC(GPP)5-GAOGLRGGAGPOGPEGGKGAAGPOGPO-(GPP)5GPC-NH2 [III-30] | most potent hLAIR-1 activators | potent inhibitors | efficiently inhibiting | inhibition of CD3-induced activation of parental reporter cells [1]: ~30%; inhibitory capacity at low peptide concentration (in words) (hLAIR-1 [3]): full inhibitory capacity
7 | GPC(GPP)5-GPAGPAGAOGPAGSRGAOGPQGPRGDK-(GPP)5GPC-NH2 [III-51] | most potent hLAIR-1 activators | – | – | functional triggering of hLAIR-1-CD3ζ (GFP expression, in words) (hLAIR-1-CD3ζ chimera): potent LAIR-1 binders and activators
8 | GPC(GPP)5-GMOGERGGLGSOGPKGDKGEOGGOGAD-(GPP)5GPC-NH2 [III-32] | – | – | – | functional triggering of hLAIR-1-CD3ζ (GFP expression, in words) (hLAIR-1-CD3ζ chimera): potent LAIR-1 binders and activators
9 | GPC(GPP)5-GTOGTDGPKGASGPAGPOGAQGPOGLQ-(GPP)5GPC-NH2 [II-30] | most potent hLAIR-1 activators | – | efficiently inhibiting | inhibition of CD3-induced activation of hLAIR-1 transfected reporter cells (hLAIR-1 [3]): ~60%
